This is an account of results in US20250073189A1, “NATURAL DIETARY SUPPLEMENT FOR MENTAL HEALTH” (Mind Pop LLC, priority 2023, published 2025).

Data set [1] can be described thus: Inventors' unspecified tests and research on single ingredients of the supplement. The format is in vivo.
Source text: Caffeine is far and away the most widely known compound in the composition, however, the present invention uses the caffeine as a clean source of energy to go along with methylliberine and theacrine.
Data set [2] can be described thus: Inventors' dose testing of theacrine (50-400 mg). The format is in vivo. The settings on record: according to research and trials; unlike caffeine. Here is the method:
Theacrine advances the beneficial effects of the compounds of this invention in unexpected ways. […] Throughout the studies pertaining to this invention, it has been discovered that low blood pressure is paramount for the proper firing of synapses and proper chemical balance in the brain. Testing in doses from 50-400 mg of theacrine have narrowed the optimum range to 125-150 mg, and more particularly about 140 mg. […] This is made possible by the waste removal from phosphatidylserine and enhanced by alpha-glycerylphosphorylcholine which spreads these effects beyond the brain, throughout the entire body.

For `Cn1c(=O)c2c(ncn2C)n(C)c1=O` [Caffeine, reference compound], the cognitive effects result in data set [1] (70 mg of caffeine) is given as “tremendous cognitive effects”.

As to `COc1nc2c(c(=O)n1C)n(C)c(=O)n2C` [Methylliberine], the “energy boost in combination with the other ingredients” value in data set [1] (at precisely 140 mg, with caffeine and theacrine) is on record as “unexpected energy boost”.

With `Cn1c(=O)c2c(n(C)c1=O)n(C)c(=O)n2C` [Theacrine], in data set [2], the “effect on blood pressure” value is listed as “does not seem to significantly affect blood pressure”.

For `C[N+](C)(C)CCOP(=O)([O-])OC[C@H](O)CO` [alpha-glycerylphosphorylcholine, Alpha-glycerylphosphorylcholine], in data set [1] (many tests and much research), the “effect on muscular output and reaction times” value was “increase muscular output and reaction times”.

Regarding Phosphatidylserine, the “effectiveness as supplementary ingredient (membrane functions, nutrient entry, cortisol modulation, waste exit)” value in data set [1] (in vivo) is recorded as “unexpectedly effective”.
